Assay results taken from ChEMBL document CHEMBL4813928, “Targeted Isolation of Asperheptatides from a Coral-Derived Fungus Using LC-MS/MS-Based Molecular Networking and Antitubercular Activities of Modified Cinnamate Derivatives” (2021).
Values after ≈ are worked out from the molar mass of the structure shown. Square brackets hold non-standard residues; d marks the D form. Peptide text beside a SMILES is read from it.

system: Mycobacterium tuberculosis; assay: Antitubercular activity against Mycobacterium tuberculosis H37Ra assessed as bacterial growth inhibition; assay type: functional

**Q.** How did the MIC turn out when `COc1ccc(/C=C/C(=O)OC[C@H]2NC(=O)[C@@H](C(C)C)NC(=O)[C@H](Cc3ccccc3)NC(=O)[C@@H](C(C)C)NC(=O)[C@@H](C)NC(=O)[C@H](CO)NC(=O)[C@@H](Cc3c[nH]c4ccccc34)NC2=O)cc1` was run?
**A.** Its MIC is 12.5 µM (≈ 11.7 µg/mL).

**Q.** For `CC(C)[C@H]1NC(=O)[C@H](Cc2ccccc2)NC(=O)[C@@H](C(C)C)NC(=O)[C@@H](C)NC(=O)[C@H](COC(=O)/C=C/c2ccccc2Cl)NC(=O)[C@@H](Cc2c[nH]c3ccccc23)NC(=O)[C@@H](COC(=O)/C=C/c2ccccc2Cl)NC1=O`, which MIC is on record?
**A.** Its MIC is 50 µM (≈ 55.3 µg/mL).

**Q.** For `Cc1ccccc1/C=C/C(=O)OC[C@@H]1NC(=O)[C@@H](Cc2c[nH]c3ccccc23)NC(=O)[C@@H](COC(=O)/C=C/c2ccccc2C)NC(=O)[C@@H](C(C)C)NC(=O)[C@H](Cc2ccccc2)NC(=O)[C@@H](C(C)C)NC(=O)[C@@H](C)NC1=O`, which MIC is on record?
**A.** Its MIC is 12.5 µM (≈ 13.3 µg/mL).

**Q.** Which MIC does the source give for `COc1ccc(/C=C/C(=O)OC[C@@H]2NC(=O)[C@@H](Cc3c[nH]c4ccccc34)NC(=O)[C@@H](COC(=O)/C=C/c3ccc(OC)c(OC)c3)NC(=O)[C@@H](C(C)C)NC(=O)[C@H](Cc3ccccc3)NC(=O)[C@@H](C(C)C)NC(=O)[C@@H](C)NC2=O)cc1OC` here?
**A.** Its MIC is 100 µM (≈ 116 µg/mL).

**Q.** `CC(C)[C@H]1NC(=O)[C@H](Cc2ccccc2)NC(=O)[C@@H](C(C)C)NC(=O)[C@@H](C)NC(=O)[C@H](CO)NC(=O)[C@@H](Cc2c[nH]c3ccccc23)NC(=O)[C@@H](COC(=O)/C=C/c2ccccc2)NC1=O` was tested. Which MIC did it give?
**A.** The MIC was > 100 µM.

**Q.** `CC(C)[C@H]1NC(=O)[C@H](Cc2ccccc2)NC(=O)[C@@H](C(C)C)NC(=O)[C@@H](C)NC(=O)[C@H](CO)NC(=O)[C@@H](Cc2c[nH]c3ccccc23)NC(=O)[C@@H](COC(=O)/C=C/c2ccc(N(C)C)cc2)NC1=O` was tested. Which MIC did it give?
**A.** Its MIC is 50 µM (≈ 47.5 µg/mL).

**Q.** How did the MIC turn out when `COc1cc(Br)c(/C=C/C(=O)OC[C@H]2NC(=O)[C@@H](C(C)C)NC(=O)[C@H](Cc3ccccc3)NC(=O)[C@@H](C(C)C)NC(=O)[C@@H](C)NC(=O)[C@H](CO)NC(=O)[C@@H](Cc3c[nH]c4ccccc34)NC2=O)cc1OC` was run?
**A.** Its MIC is 50 µM (≈ 52.3 µg/mL).

**Q.** `CC(C)[C@H]1NC(=O)[C@H](Cc2ccccc2)NC(=O)[C@@H](C(C)C)NC(=O)[C@@H](C)NC(=O)[C@H](COC(=O)/C=C/c2ccccc2)NC(=O)[C@@H](Cc2c[nH]c3ccccc23)NC(=O)[C@@H](COC(=O)/C=C/c2ccccc2)NC1=O` was tested. Which MIC did it give?
**A.** Its MIC is > 100 µM.

**Q.** For `COc1cc(/C=C/C(=O)OC[C@@H]2NC(=O)[C@@H](Cc3c[nH]c4ccccc34)NC(=O)[C@@H](COC(=O)/C=C/c3ccc(OCc4ccccc4)c(OC)c3)NC(=O)[C@@H](C(C)C)NC(=O)[C@H](Cc3ccccc3)NC(=O)[C@@H](C(C)C)NC(=O)[C@@H](C)NC2=O)ccc1OCc1ccccc1`, which MIC is on record?
**A.** The MIC was 100 µM (≈ 131 µg/mL).

**Q.** Which MIC does the source give for `CC(C)[C@H]1NC(=O)[C@H](Cc2ccccc2)NC(=O)[C@@H](C(C)C)NC(=O)[C@@H](C)NC(=O)[C@H](COC(=O)/C=C/c2ccc(N(C)C)cc2)NC(=O)[C@@H](Cc2c[nH]c3ccccc23)NC(=O)[C@@H](COC(=O)/C=C/c2ccc(N(C)C)cc2)NC1=O` here?
**A.** The MIC was 50 µM (≈ 56.2 µg/mL).

**Q.** `CC(C)[C@H]1NC(=O)[C@H](Cc2ccccc2)NC(=O)[C@@H](C(C)C)NC(=O)[C@@H](C)NC(=O)[C@H](COC(=O)/C=C/c2ccc(F)cc2)NC(=O)[C@@H](Cc2c[nH]c3ccccc23)NC(=O)[C@@H](COC(=O)/C=C/c2ccc(F)cc2)NC1=O` was tested. Which MIC did it give?
**A.** The MIC was 50 µM (≈ 53.7 µg/mL).

**Q.** For `CC(C)[C@H]1NC(=O)CNC(=O)[C@H](CO)NC(=O)[C@@H](Cc2c[nH]c3ccccc23)NC(=O)[C@@H](C)NC(=O)[C@@H](C(C)C)NC(=O)[C@H](Cc2ccccc2)NC1=O`, which MIC is on record?
**A.** Its MIC is 100 µM (≈ 74.7 µg/mL).

**Q.** Which MIC does the source give for `CC(C)[C@H]1NC(=O)[C@H](Cc2ccccc2)NC(=O)[C@@H](C(C)C)NC(=O)[C@@H](C)NC(=O)[C@H](COC(=O)/C=C/c2ccc(F)c(F)c2)NC(=O)[C@@H](Cc2c[nH]c3ccccc23)NC(=O)[C@@H](COC(=O)/C=C/c2ccc(F)c(F)c2)NC1=O` here?
**A.** The MIC was 12.5 µM (≈ 13.9 µg/mL).

**Q.** `CC(C)[C@H]1NC(=O)[C@H](Cc2ccccc2)NC(=O)[C@@H](C(C)C)NC(=O)[C@@H](C)NC(=O)[C@H](COC(=O)/C=C/c2ccc(C(F)(F)F)cc2)NC(=O)[C@@H](Cc2c[nH]c3ccccc23)NC(=O)[C@@H](COC(=O)/C=C/c2ccc(C(F)(F)F)cc2)NC1=O` was tested. Which MIC did it give?
**A.** The MIC was 100 µM (≈ 117 µg/mL).

**Q.** How did the MIC turn out when `COc1cc(Br)c(/C=C/C(=O)OC[C@@H]2NC(=O)[C@@H](Cc3c[nH]c4ccccc34)NC(=O)[C@@H](COC(=O)/C=C/c3cc(OC)c(OC)cc3Br)NC(=O)[C@@H](C(C)C)NC(=O)[C@H](Cc3ccccc3)NC(=O)[C@@H](C(C)C)NC(=O)[C@@H](C)NC2=O)cc1OC` was run?
**A.** The MIC was 100 µM (≈ 132 µg/mL).

**Q.** How did the MIC turn out when `COc1ccc(/C=C/C(=O)OC[C@@H]2NC(=O)[C@@H](Cc3c[nH]c4ccccc34)NC(=O)[C@@H](COC(=O)/C=C/c3ccc(OC)cc3)NC(=O)[C@@H](C(C)C)NC(=O)[C@H](Cc3ccccc3)NC(=O)[C@@H](C(C)C)NC(=O)[C@@H](C)NC2=O)cc1` was run?
**A.** The MIC was 100 µM (≈ 110 µg/mL).

**Q.** For `COc1cc(/C=C/C(=O)OC[C@H]2NC(=O)[C@@H](C(C)C)NC(=O)[C@H](Cc3ccccc3)NC(=O)[C@@H](C(C)C)NC(=O)[C@@H](C)NC(=O)[C@H](CO)NC(=O)[C@@H](Cc3c[nH]c4ccccc34)NC2=O)ccc1OCc1ccccc1`, which MIC is on record?
**A.** Its MIC is 50 µM (≈ 52.2 µg/mL).

**Q.** `CC(C)[C@H]1NC(=O)CNC(=O)[C@H](C)NC(=O)[C@@H](Cc2c[nH]c3ccccc23)NC(=O)[C@@H](CO)NC(=O)[C@@H](C(C)C)NC(=O)[C@H](Cc2ccccc2)NC1=O` was tested. Which MIC did it give?
**A.** Its MIC is 100 µM (≈ 74.7 µg/mL).

**Q.** For `CC(C)[C@H]1NC(=O)[C@H](Cc2ccccc2)NC(=O)[C@@H](C(C)C)NC(=O)[C@@H](C)NC(=O)[C@H](COC(=O)/C=C/c2cccc(Cl)c2)NC(=O)[C@@H](Cc2c[nH]c3ccccc23)NC(=O)[C@@H](COC(=O)/C=C/c2cccc(Cl)c2)NC1=O`, which MIC is on record?
**A.** The MIC was 100 µM (≈ 111 µg/mL).

**Q.** For `Cc1ccc(/C=C/C(=O)OC[C@@H]2NC(=O)[C@@H](Cc3c[nH]c4ccccc34)NC(=O)[C@@H](COC(=O)/C=C/c3ccc(C)cc3)NC(=O)[C@@H](C(C)C)NC(=O)[C@H](Cc3ccccc3)NC(=O)[C@@H](C(C)C)NC(=O)[C@@H](C)NC2=O)cc1`, which MIC is on record?
**A.** Its MIC is 12.5 µM (≈ 13.3 µg/mL).

**Q.** Which MIC does the source give for `CC(C)[C@H]1NC(=O)[C@H](Cc2ccccc2)NC(=O)[C@@H](C(C)C)NC(=O)[C@@H](C)NC(=O)[C@H](COC(=O)/C=C/c2ccc(Cl)cc2)NC(=O)[C@@H](Cc2c[nH]c3ccccc23)NC(=O)[C@@H](COC(=O)/C=C/c2ccc(Cl)cc2)NC1=O` here?
**A.** The MIC was 50 µM (≈ 55.3 µg/mL).

**Q.** Which MIC does the source give for `CC(C)[C@H]1NC(=O)[C@H](Cc2ccccc2)NC(=O)[C@@H](C(C)C)NC(=O)[C@@H](C)NC(=O)[C@H](C)NC(=O)[C@@H](Cc2c[nH]c3ccccc23)NC(=O)[C@@H](C)NC1=O` (cyclo([dV][dA][dW]A[dA][dV]F)) here?
**A.** Its MIC is 100 µM (≈ 74.5 µg/mL).

**Q.** How did the MIC turn out when `CC(C)[C@H]1NC(=O)CNC(=O)[C@H](CO)NC(=O)[C@@H](Cc2c[nH]c3ccccc23)NC(=O)[C@@H](CO)NC(=O)[C@@H](C(C)C)NC(=O)[C@H](Cc2ccccc2)NC1=O` (cyclo([dV][dS][dW]SG[dV]F)) was run?
**A.** The MIC was 100 µM (≈ 76.3 µg/mL).

**Q.** For `CC(C)[C@H]1NC(=O)[C@H](Cc2ccccc2)NC(=O)[C@@H](C(C)C)NC(=O)[C@@H](C)NC(=O)[C@H](CO)NC(=O)[C@@H](Cc2c[nH]c3ccccc23)NC(=O)[C@@H](CO)NC1=O` (cyclo([dV][dS][dW]S[dA][dV]F)), which MIC is on record?
**A.** The MIC was > 100 µM.

**Q.** How did the MIC turn out when `NNC(=O)c1ccncc1` [ISONIAZID] was run?
**A.** The MIC was 0.0125 µM (≈ 0.00171 µg/mL).

**Q.** How did the MIC turn out when `CO[C@H]1/C=C/O[C@@]2(C)Oc3c(C)c(O)c4c(O)c(c(/C=N/N5CCN(C)CC5)c(O)c4c3C2=O)NC(=O)/C(C)=C\C=C\[C@H](C)[C@H](O)[C@@H](C)[C@@H](O)[C@@H](C)[C@H](OC(C)=O)[C@@H]1C` [RIFAMPIN] was run?
**A.** The MIC was 0.00625 µM (≈ 0.00514 µg/mL).

system: Mycobacterium tuberculosis; assay: Antitubercular activity against Mycobacterium tuberculosis H37Ra assessed as bacterial growth inhibition relative to parent compound; assay type: functional

**Q.** With `COc1ccc(/C=C/C(=O)OC[C@H]2NC(=O)[C@@H](C(C)C)NC(=O)[C@H](Cc3ccccc3)NC(=O)[C@@H](C(C)C)NC(=O)[C@@H](C)NC(=O)[C@H](CO)NC(=O)[C@@H](Cc3c[nH]c4ccccc34)NC2=O)cc1` as the compound, how does the “fold change (FC)” value read?
**A.** The value was 10.

**Q.** For `Cc1ccccc1/C=C/C(=O)OC[C@@H]1NC(=O)[C@@H](Cc2c[nH]c3ccccc23)NC(=O)[C@@H](COC(=O)/C=C/c2ccccc2C)NC(=O)[C@@H](C(C)C)NC(=O)[C@H](Cc2ccccc2)NC(=O)[C@@H](C(C)C)NC(=O)[C@@H](C)NC1=O`, which “fold change (FC)” value is on record?
**A.** Its value is 10.

**Q.** `CC(C)[C@H]1NC(=O)[C@H](Cc2ccccc2)NC(=O)[C@@H](C(C)C)NC(=O)[C@@H](C)NC(=O)[C@H](COC(=O)/C=C/c2ccc(F)c(F)c2)NC(=O)[C@@H](Cc2c[nH]c3ccccc23)NC(=O)[C@@H](COC(=O)/C=C/c2ccc(F)c(F)c2)NC1=O` was tested. Which “fold change (FC)” value did it give?
**A.** Its value is 10.

**Q.** `Cc1ccc(/C=C/C(=O)OC[C@@H]2NC(=O)[C@@H](Cc3c[nH]c4ccccc34)NC(=O)[C@@H](COC(=O)/C=C/c3ccc(C)cc3)NC(=O)[C@@H](C(C)C)NC(=O)[C@H](Cc3ccccc3)NC(=O)[C@@H](C(C)C)NC(=O)[C@@H](C)NC2=O)cc1` was tested. Which “fold change (FC)” value did it give?
**A.** The value was 10.
